Key:
gastric secretion (HCl) = assay: Inhibition of gastric secretion (HCl) in the Shay rat over 4 h; type: in vivo; settings: rats; for ED25 / ED50: Rattus norvegicus, po, perorally; for ED25: dose reducing HCl secretion (4 h) by 25% vs control; for ED50: dose reducing HCl secretion (4 h) by 50% vs control; for Gastric secretion: % inhibition of HCl secretion: after administration of the antiulcerous ED50, 4 h
Procedure: (§1) In these experiments, the compounds according to the invention were compared with prior art compounds (A-D) of UK Patent Application GB No. 2 082 580. The compounds investigated are numbered as follows:
(§2) The influence of the compounds according to the invention on gastric lesion formation induced by pyloric ligature (4 h; so-called Shay rat) and oral administration of 100 mg/kg of acetylsalicylic acid, and the gastric secretion (HCl) in the course of 4 h in rats is shown in the following table.
(§3) *ED25 und ED50 = dose which reduces the lesion index or the HCl secretion
(§4) (4h) in the rat stomach by 25 and, respectively, 50% in the treated group
(§5) in comparison with the control group.
**after administration of the antiulcerous ED50.
(§6) Ulcers are caused in rats which have been fasted for 24 hours (female, 180-200 g, 4 animals per cage on a high grid) by pyloric ligature (under diethyl ether anesthesia) and oral administration of 100 mg/10 ml/kg of acetylsalicylic acid. The substances to be tested are administered orally (10 ml/kg) one hour before the pyloric ligature. The wound is closed by means of Michel clamps. 4 hours thereafter, the animals are sacrificed under ether anesthesia by Atlas dislocation and resection of the stomach. The stomach is opened longitudinally and attached to a cork plate, after the amount of gastric juice secreted (volume) and later its HCl content (titration with sodium hydroxide solution) have first been determined; the number and size (=diameter) of the ulcers present are determined under a stereomicroscope at 10-fold magnification. The product of the degree of severity (according to the following points scale) and number of ulcers serves as the individual lesion index.
(§7) The reduction in the average lesion index of each treated group compared with the control group (=100%) serves as a measure of the antiulcerogenic effect.

[1] = system: gastric lesion formation (rat stomach); assay: Antiulcerogenic action / protective effect on the stomach (modified Shay rat: pyloric ligature plus oral acetylsalicylic acid); type: in vivo; settings: rats, perorally, 1 h before pyloric ligature, 100 mg/kg acetylsalicylic acid orally, dose reducing lesion index by 50% vs control, 4 h, read-out: Protective effect on the stomach: Inhibition of the lesion index, ED50
Procedure: as §1, §2, §3, §4, §5
The antiulcerogenic action was tested by the so-called Shay rat method:
as §6
Ulcer diameter 0.1-1.4 mm: 1
as §7

In the case of `COc1ccnc(CSc2nc3cc4c(cc3[nH]2)OC(F)(F)C(F)O4)c1` (stereo not drawn) [Serial No. 4, 6,6,7-Trifluoro-6,7-dihydro-2-[(4-methoxy-2-pyridyl)-methylthio]-1H--[1,4]-dioxino[2,3-f]benzimidazole], the ED25 (gastric secretion (HCl)) is reported as 1 mg/kg, the ED50 (gastric secretion (HCl)) is reported as 1.7 mg/kg and the “Gastric secretion: % inhibition of HCl secretion” value (shortened to “Gastric secretion: % inhibition”) (gastric secretion (HCl)) is reported as 25%. The ED50 [1] was 0.6 mg/kg.
With `COc1ccnc(CSc2nc3cc4c(cc3[nH]2)OCCO4)c1` [Serial No. C, 6,7-Dihydro-2-[(4-methoxy-2-pyridyl)methylthio]-1H--[1,4]-dioxino[2,3-f]benzimidazole, reference compound] the ED25 (gastric secretion (HCl)) was greater than 30 mg/kg, the ED50 (gastric secretion (HCl)) was greater than 30 mg/kg and the “Gastric secretion: % inhibition” value (gastric secretion (HCl)) was 19%. It also gave an ED50 [1] of 30 mg/kg.
In the case of `COc1ccnc(C[S+]([O-])c2nc3cc4c(cc3[nH]2)OC(F)(F)C(F)(Cl)O4)c1C` (stereo not drawn) [Serial No. 10, 6-Chloro-6,7,7-trifluoro-6,7-dihydro-2-[(4-methoxy-3-methyl-2-pyridyl)methylsulfinyl]-1H-[1,4]-dioxino[2,3-f]benzimidazole], the ED25 (gastric secretion (HCl)) is reported as 0.4 mg/kg, the ED50 (gastric secretion (HCl)) is reported as 0.7 mg/kg and the “Gastric secretion: % inhibition” value (gastric secretion (HCl)) is reported as 25%. For the same molecule, the ED50 [1] was 0.4 mg/kg.
With `COc1c(C)cnc(C[S+]([O-])c2nc3cc4c(cc3[nH]2)OC(F)C(F)(F)O4)c1C` (stereo not drawn) [Serial No. 9, 6,6,7-trifluoro-6,7-dihydro-2-[(4-methoxy-3,5-dimethyl-2-pyridyl)methylsulfinyl]-1H-[1,4]-dioxino[2,3-f]benzimidazole] the ED25 (gastric secretion (HCl)) was 0.7 mg/kg, the ED50 (gastric secretion (HCl)) was 1 mg/kg and the “Gastric secretion: % inhibition” value (gastric secretion (HCl)) was 15%. It also gave an ED50 [1] of 0.5 mg/kg.
`COc1cc(C[S+]([O-])c2nc3cc4c(cc3[nH]2)OC(F)(F)O4)ncc1C` (stereo not drawn) [Serial No. 8, 2,2-difluoro-6-[(4-methoxy-5-methyl-2-pyridyl)methylsulfinyl]-5H-[1,3]-dioxolo[4,5-f]benzimidazole] was tested, and the ED25 (gastric secretion (HCl)) was 1 mg/kg, the ED50 (gastric secretion (HCl)) was 2.5 mg/kg and the “Gastric secretion: % inhibition” value (gastric secretion (HCl)) was 17%. For the same molecule, the ED50 [1] was 0.5 mg/kg.
`COc1ccnc(CSc2nc3cc4c(cc3[nH]2)OC(F)(F)O4)c1C` [Serial No. 7, 2,2-difluoro-6-[(4-methoxy-3-methyl-2-pyridyl)methylthio]-5H-[1,3]-dioxolo[4,5-f]benzimidazole] was tested, and the ED25 (gastric secretion (HCl)) was 0.6 mg/kg, the ED50 (gastric secretion (HCl)) was greater than 1 mg/kg and the “Gastric secretion: % inhibition” value (gastric secretion (HCl)) was 25%. It also gave an ED50 [1] of 0.6 mg/kg.
For `COc1ccnc(C[S+]([O-])c2nc3cc4c(cc3[nH]2)OC(F)C(F)(F)O4)c1C` (stereo not drawn) [Serial No. 5, 6,6,7-trifluoro-6,7-dihydro-2-[(4-methoxy-3-methyl-2-pyridyl)methylsulfinyl]-1H-[1,4]-dioxino[2,3-f]benzimidazole], the ED25 (gastric secretion (HCl)) was less than 0.3 mg/kg, the ED50 (gastric secretion (HCl)) was 0.6 mg/kg and the “Gastric secretion: % inhibition” value (gastric secretion (HCl)) was 35%. It also gave an ED50 [1] of 0.35 mg/kg.
`COc1ccnc(C[S+]([O-])c2nc3cc4c(cc3[nH]2)OCCO4)c1` (stereo not drawn) [Serial No. D, 6,7-Dihydro-2-[(4-methoxy-2-pyridyl)methylsulfinyl]-1H--[1,4]-dioxino[2,3-f]benzimidazole, reference compound] was tested, and the ED25 (gastric secretion (HCl)) was greater than 30 mg/kg, the ED50 (gastric secretion (HCl)) was greater than 30 mg/kg and the “Gastric secretion: % inhibition” value (gastric secretion (HCl)) was 0%. For the same molecule, the ED50 [1] was 30 mg/kg.
For `COc1ccnc(C[S+]([O-])c2nc3cc4c(cc3[nH]2)OCO4)c1` (stereo not drawn) [Serial No. B, 6-[(4-Methoxy-2-pyridyl)methylsulffinyl]-5H--[1,3]-dioxolo-[4,5-f]benzimidazole, reference compound], the ED50 [1] was roughly 5 mg/kg.
For `COc1ccnc(C[S+]([O-])c2nc3cc4c(cc3[nH]2)OC(F)(F)O4)c1` (stereo not drawn) [Serial No. 1, 2,2-Difluoro-6-[(4-methoxy-2-pyridyl)methylsulfinyl]-5H--[1,3]-dioxolo[4,5-f]benzimidazole], the ED25 (gastric secretion (HCl)) was 0.6 mg/kg, the ED50 (gastric secretion (HCl)) was 0.9 mg/kg and the “Gastric secretion: % inhibition” value (gastric secretion (HCl)) was 25%. It also gave an ED50 [1] of 0.6 mg/kg.
For `COc1ccnc(C[S+]([O-])c2nc3cc4c(cc3[nH]2)OC(F)C(F)(F)O4)c1` (stereo not drawn) [Serial No. 3, 6,6,7-Trifluoro-6,7-dihydro-2-[(4-methoxy-2-pyridyl)methylsulfinyl]-1H-[1,4]-dioxino[2,3-f]benzimidazole], the ED25 (gastric secretion (HCl)) was 0.5 mg/kg, the ED50 (gastric secretion (HCl)) was 1.4 mg/kg and the “Gastric secretion: % inhibition” value (gastric secretion (HCl)) was 23%. The ED50 [1] was 0.45 mg/kg.
Work on `COc1ccnc(CSc2nc3cc4c(cc3[nH]2)OCO4)c1` [Serial No. A, 6-[(4-Methoxy-2-pyridyl)methylthio]-5H--[1,3]-dioxolo-[4,5-f]benzimidazole, reference compound] yielded an ED25 (gastric secretion (HCl)) greater than 10 mg/kg and an ED50 [1] greater than 10 mg/kg.
In the case of `COc1ccnc(CSc2nc3cc4c(cc3[nH]2)OC(F)C(F)(F)O4)c1C` (stereo not drawn) [Serial No. 6, 6,6,7-trifluoro-6,7-dihydro-2-[(4-methoxy-3-methyl-2-pyridyl)methylthio]-1H-[1,4]-dioxino[2,3-f]benzimidazole], the ED25 (gastric secretion (HCl)) is reported as 0.7 mg/kg, the ED50 (gastric secretion (HCl)) is reported as 1.4 mg/kg and the “Gastric secretion: % inhibition” value (gastric secretion (HCl)) is reported as 20%. It also gave an ED50 [1] of 0.6 mg/kg.
In the case of `COc1ccnc(C[S+]([O-])c2nc3cc4c(cc3[nH]2)OC(F)(F)O4)c1C` (stereo not drawn) [Serial No. 2, 2,2-difluoro-6-[(4-methoxy-3-methyl-2-pyridyl)methylsulfinyl]-5H-[1,3]-dioxolo-[4,5-f]benzimidazole], the ED25 (gastric secretion (HCl)) is reported as less than 0.3 mg/kg, the ED50 (gastric secretion (HCl)) is reported as 0.6 mg/kg and the “Gastric secretion: % inhibition” value (gastric secretion (HCl)) is reported as 30%. The ED50 [1] was 0.4 mg/kg.

Reference: patent US4560693A, “[1,3]-Dioxolo[4,5-f]benzimidazoles and [1,4]-dioxino[2,3-f]benzimidazoles” (Byk Gulden Lomberg Chemische Fabrik GmbH, priority 1983, dated 1985)
